Consider ten compounds from patent publication US10189813B2, “Formylated N-heterocyclic derivatives as FGFR4 inhibitors” (NOVARTIS AG, priority 2015, dated 2019).

One test deals with T1, FGFR1 (407-822) (Homo sapiens, UniProt P11362).
T1 construct: FGFR1 (407-822)
The experiment in a line: In vitro biochemical assay for FGFR1. As for the experimental part: (§1) Liquid handling and incubation steps were done on an Innovadyne Nanodrop Express equipped with a robotic arm (Thermo CatX, Caliper Twister II) and an incubator (Liconic STX40, Thermo Cytomat 2C450). The assay plates were prepared by addition of 50 nI per well of compound solution in 90% DMSO. […] Kinase reactions were incubated at 30° C. for 60 minutes and subsequently terminated by addition of 16 μl per well of stop solution (100 mM HEPES pH 7.5, 5% DMSO, 0.1% Caliper coating reagent, 10 mM EDTA, and 0.015% Brij35). Plates with terminated kinase reactions were transferred to the Caliper LC3000 workstations for reading. Phosphorylated and unphosphorylated peptides were separated using the Caliper microfluidic mobility shift technology. Briefly, samples from terminated kinase reactions were applied to the chip. Analytes are transported through the chip by constant buffer flow and the migration of the substrate peptide is monitored by the fluorescence signal of its label. Phosphorylated peptide (product) and unphosphorylated peptide (substrate) are separated in an electric field by their charge/mass ratio. Kinase activities were calculated from the amounts of formed phospho-peptide. IC50 values were determined from percent inhibition values at different compound concentrations by non-linear regression analysis.
(§2) In vitro biochemical assays for FGFR1 (407-822), FGFR2 (406-821) and FGFR3 (411-806) were conducted in a similar manner to the in vitro biochemical assay for FGFR4 described above, using the indicated portions of the kinase domains. The following examples all produced IC50 values >10000 nM in the biochemical FGFR1, FGFR2 and FGFR3 assays: 2, 3, 4, 11, 13, 16, 17, 18, 20, 28, 30.

In the next test the target is T2, FGFR3 (411-806) (Homo sapiens, UniProt P22607).
T2 construct: FGFR3 (411-806)
T2 sequence (P22607 411-806): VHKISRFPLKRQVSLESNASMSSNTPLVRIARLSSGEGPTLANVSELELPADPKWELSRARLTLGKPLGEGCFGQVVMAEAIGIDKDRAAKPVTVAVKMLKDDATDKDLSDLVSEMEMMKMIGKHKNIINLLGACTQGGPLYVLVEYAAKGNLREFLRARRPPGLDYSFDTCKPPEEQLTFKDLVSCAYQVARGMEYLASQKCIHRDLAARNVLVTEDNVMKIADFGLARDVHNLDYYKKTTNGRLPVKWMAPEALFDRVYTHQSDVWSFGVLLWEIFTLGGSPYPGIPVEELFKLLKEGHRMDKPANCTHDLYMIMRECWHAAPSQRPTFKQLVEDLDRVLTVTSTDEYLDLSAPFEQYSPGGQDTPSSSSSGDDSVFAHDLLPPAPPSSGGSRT
Description: In vitro biochemical assay for FGFR3. As to the method:
as §1, §2

The subject of test [1] is HuH-7 hepatocellular carcinoma cells. Description: CellTiter Glo (CTG) proliferation/viability assay. It counts as cell-based. To be noted: HuH-7 cells, 3 days, half-maximal growth inhibition (GI50), read-out: HUH7 proliferation CTG. As for the experimental part: CellTiter Glo (CTG) Assay:
The functional effect of compounds on cell proliferation is assessed using HuH-7 hepatocellular carcinoma cells obtained from the Japanese Collection of Research Bioresources Cell Bank (Cat# JCRB0403) and cultured in the vendor-recommended medium (DMEM high glucose (Amimed Cat#1-26F01-I), 10% foetal calf serum (Invitrogen Cat#16140-071), 1 mM sodium pyruvate (Amimed Cat#5-60F00-H), 1× Penicillin/Streptomycin (Amimed Cat#4-01F00-H)) at 37° C. in a humidified 5% CO2 incubator. Compound-mediated suppression of cell proliferation/viability is assessed by quantification of cellular ATP levels using the CellTiter-Glo (CTG) reagent (Promega, Cat# G7573). Briefly, cells are seeded at 3′000 cells/well/80 μl fresh medium into tissue-culture-treated 96-well plates (Costar Cat#3904), followed by addition of 20 μl medium containing compound dilutions at 5-fold their final intended concentration. Dose-response effects are assessed by 3-fold serial dilutions of the test compound, starting at 10 μM. Following incubation of the cells for 3 days at 37° C. and 5% CO2, the effect of inhibitors on cell viability is quantified following addition of 50 μl CTG and luminescence measurement (integration time: 500 ms) as per vendor manual, using a correspondingly equipped multi-mode plate reader (M200Pro, TECAN, Switzerland). For data analysis, the assay background value determined in wells containing medium, but no cells, is subtracted from all data points. To enable differentiation of cytotoxic from cytostatic compounds, the number of viable cells is assessed relative to that observed at the time of compound addition using a separate cell plate (day 0). The effect of a particular test compound concentration on cell proliferation/viability is expressed as percentage of the background- and day 0-corrected luminescence reading obtained for cells treated with vehicle only (DMSO, 0.1% f.c.), which is set as 100%, whereas the luminescence reading for wells containing medium only, but no cells, is set as −100%. Compound concentrations leading to half-maximal growth inhibition (GI50) are determined using standard four parameter curve fitting (XLfit 5.2., IDBS, UK).

For test [2], the target named is BaF3-Tel-FGFR4 cells (TEL fused to cytoplasmic domain of FGFR4) (Homo sapiens, UniProt P22455). The experiment in a line: In vitro cellular kinase assay for FGFR4 (BaF3-Tel-FGFR4, MSD capture ELISA of tyrosine phosphorylation). The conditions noted are these: 1 hour incubation. For orientation: An ELISA detects its analyte on a solid surface through an enzyme-linked reagent.
Chain of BaF3-Tel-FGFR4 cells (TEL fused to cytoplasmic domain of FGFR4) (P22455 with tags, fused parts or gaps): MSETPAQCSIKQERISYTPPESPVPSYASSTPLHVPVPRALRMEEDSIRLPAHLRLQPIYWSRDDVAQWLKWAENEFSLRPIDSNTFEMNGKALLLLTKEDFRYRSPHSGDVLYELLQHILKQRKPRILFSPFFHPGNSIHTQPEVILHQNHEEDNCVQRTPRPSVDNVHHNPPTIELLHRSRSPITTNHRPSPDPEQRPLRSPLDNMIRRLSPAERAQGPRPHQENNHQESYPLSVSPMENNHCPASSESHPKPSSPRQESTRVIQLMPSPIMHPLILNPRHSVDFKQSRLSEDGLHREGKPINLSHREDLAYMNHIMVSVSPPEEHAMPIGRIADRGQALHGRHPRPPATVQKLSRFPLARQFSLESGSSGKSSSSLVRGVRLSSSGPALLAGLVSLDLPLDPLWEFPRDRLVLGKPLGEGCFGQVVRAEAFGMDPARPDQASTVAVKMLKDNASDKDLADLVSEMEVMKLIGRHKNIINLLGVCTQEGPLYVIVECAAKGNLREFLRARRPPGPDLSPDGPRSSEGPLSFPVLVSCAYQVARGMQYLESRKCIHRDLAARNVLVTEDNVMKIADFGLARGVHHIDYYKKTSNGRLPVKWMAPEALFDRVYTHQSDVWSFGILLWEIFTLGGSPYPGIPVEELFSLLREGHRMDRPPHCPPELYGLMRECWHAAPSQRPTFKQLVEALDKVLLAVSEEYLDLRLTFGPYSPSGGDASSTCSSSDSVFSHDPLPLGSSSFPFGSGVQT

Test [3] deals with T3, FGFR4 (GST-FGFR4(388-802)) (Homo sapiens, UniProt P22455).
T3 construct: GST-FGFR4(388-802); GST (N); made in house; host or cells: insect cells
T3 sequence (P22455 388-802): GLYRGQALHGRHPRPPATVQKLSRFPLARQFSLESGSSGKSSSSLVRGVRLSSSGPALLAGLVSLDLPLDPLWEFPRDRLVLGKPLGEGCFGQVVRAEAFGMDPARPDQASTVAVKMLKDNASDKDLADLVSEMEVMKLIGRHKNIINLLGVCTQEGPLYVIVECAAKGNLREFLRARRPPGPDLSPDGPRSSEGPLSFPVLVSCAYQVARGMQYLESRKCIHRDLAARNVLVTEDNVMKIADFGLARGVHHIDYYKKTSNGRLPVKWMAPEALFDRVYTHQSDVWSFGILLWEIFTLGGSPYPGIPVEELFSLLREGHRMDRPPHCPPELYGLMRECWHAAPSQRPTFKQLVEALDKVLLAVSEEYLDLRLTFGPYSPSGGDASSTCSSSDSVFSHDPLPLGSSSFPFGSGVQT
Description: In-vitro biochemical kinase assay for FGFR4 (Caliper mobility shift). To be noted: 60 minutes at 30° C. As for the experimental part: In-Vitro Biochemical Kinase Assays for FGFR4
All assays were performed in 384 well microtiter plates. Each assay plate contained 8-point serial dilutions for 40 test compounds, as well as four 8-point serial dilutions of staurosporine as reference compound, plus 16 high and 16 low controls.
as §1
Preparation of Compound Dilutions
Test compounds were dissolved in DMSO (10 mM) and transferred into 1.4 mL flat bottom or V-shaped Matrix tubes carrying a unique 2D matrix. The stock solutions were stored at […] if not used immediately. For the test procedure the vials were defrosted and identified by a scanner whereby a working sheet was generated that guided the subsequent working steps.
Compound dilutions were made in 96 well plates. This format enabled the assay of maximally 40 individual test compounds at 8 concentrations (single points) including 4 reference compounds. The dilution protocol included the production of “pre-dilution plates”, “master plates” and “assay plates”.
96 polypropylene well plates were used as pre-dilution plates. A total of 4 pre-dilution plates were prepared including 10 test compounds each on the plate positions A1-A10, one standard compound at A11 and one DMSO control at A12. All dilution steps were done on a HamiltonSTAR robot.
These plates were used directly for the assay which was performed in a total volume of 9.05 μL.

The target of the next test is T4, FGFR2 (406-821) (Homo sapiens, UniProt P21802).
T4 construct: FGFR2 (406-821)
T4 sequence (P21802 406-821): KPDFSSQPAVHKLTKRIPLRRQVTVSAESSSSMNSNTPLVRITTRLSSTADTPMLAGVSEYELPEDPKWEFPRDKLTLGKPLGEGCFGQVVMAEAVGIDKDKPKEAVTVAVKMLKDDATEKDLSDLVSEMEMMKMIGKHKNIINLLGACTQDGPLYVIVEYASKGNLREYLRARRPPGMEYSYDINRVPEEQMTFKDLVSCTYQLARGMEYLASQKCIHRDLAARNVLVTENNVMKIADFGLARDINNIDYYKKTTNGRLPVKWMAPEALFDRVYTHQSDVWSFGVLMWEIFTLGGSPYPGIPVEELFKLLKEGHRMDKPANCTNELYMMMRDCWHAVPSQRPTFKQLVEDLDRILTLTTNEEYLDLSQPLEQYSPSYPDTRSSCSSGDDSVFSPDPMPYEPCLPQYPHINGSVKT
Description: In vitro biochemical assay for FGFR2. As to the method: as §1, §2

For test [4], the system named is HuH-7 hepatocellular carcinoma cells. Description: Methylene blue staining proliferation assay (MBS). It is filed as cell-based. The conditions noted are these: Homo sapiens, HuH-7 cells, 72 hours, read-out: HUH7 proliferation MBS. As to the method: Methylene Blue Staining Proliferation Assay (MBS):
The effect of compounds on cell proliferation is assessed using HuH-7 hepatocellular carcinoma cells obtained from the Japanese Collection of Research Bioresources Cell Bank (Cat# JCRB0403) and cultured in the vendor-recommended medium (DMEM high glucose (Amimed Cat#1-26F01-I), 10% foetal calf serum (Invitrogen Cat#16140-071), 1 mM sodium pyruvate (Amimed Cat#5-60F00-H), 1× Penicillin/Streptomycin (Amimed Cat#4-01F00-H)) at 37° C. in a humidified 5% CO2 incubator. […] 72 hours after compound addition, cells were fixed by adding 25 μL/well of 20% glutaraldehyde (Sigma Aldrich Cat# G400-4) and incubated for 10 minutes at room temperature. Cells were washed three times with H2O, 200 μL/well and stained with 100 μL/well 0.05% methylene blue (ABCR GmbH Cat# AB117904) for 10 minutes at room temperature. Cells were washed 3 times with H2O, 200 μL/well and then lysed by adding 200 μL/well of 3% HCl (Fluka Cat#84422) for 30 minutes at room temperature with shaking. Optical density was measured at A650 nm. The concentration of compound providing 50% of proliferation inhibition with respect to DMSO-treated cells was determined (IC50) using XLFit software.

T1 sequence (P11362 407-822): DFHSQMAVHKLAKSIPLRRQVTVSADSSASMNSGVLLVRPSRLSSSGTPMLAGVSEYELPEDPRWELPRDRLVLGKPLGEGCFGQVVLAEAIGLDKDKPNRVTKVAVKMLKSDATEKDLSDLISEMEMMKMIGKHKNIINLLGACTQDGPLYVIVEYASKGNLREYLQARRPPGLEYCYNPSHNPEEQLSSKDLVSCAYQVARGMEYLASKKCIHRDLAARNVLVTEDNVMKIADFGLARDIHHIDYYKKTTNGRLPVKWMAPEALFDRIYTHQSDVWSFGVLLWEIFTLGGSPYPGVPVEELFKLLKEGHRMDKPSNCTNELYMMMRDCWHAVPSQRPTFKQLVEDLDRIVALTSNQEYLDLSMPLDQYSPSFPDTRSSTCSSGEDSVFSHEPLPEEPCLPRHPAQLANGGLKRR

Consider `CC(C)Oc1cc(NC(=O)Nc2nccc(C=O)n2)ncc1C#N` [Example 30, 1-(5-cyano-4-isopropoxypyridin-2-yl)-3-(4-formylpyrimidin-2-yl)urea], for which the IC50 is more than 10 µM against FGFR1 (407-822); more than 10 µM on FGFR3 (411-806); more than 3000 nM in test [1] (Homo sapiens, Huh-7, 72 h); 982 nM in test [2]; 100 nM in test [3]; more than 10 µM on FGFR2 (406-821).

As to `COCCNc1cc(Nc2ccnn2-c2ccc(-c3cnn(C)c3)c(C=O)n2)ncc1C(F)(F)F` [Example 28, 6-(5-((4-((2-methoxyethyl)amino)-5-(trifluoromethyl)pyridin-2-yl)amino)-1H-pyrazol-1-yl)-3-(1-methyl-1H-pyrazol-4-yl)picolinaldehyde], the IC50 was more than 10 µM against FGFR1 (407-822); more than 10 µM on FGFR3 (411-806); more than 3000 nM in test [1] (Homo sapiens, Huh-7, 72 h); 2660 nM in test [1]; 2640 nM in test [2]; 480 nM in test [3]. The compound also returned an IC50 on FGFR2 (406-821) of more than 10 µM.

With `COCCNc1cc(NC(=O)N(C)c2ccc(CN(C)C(C)=O)c(C=O)n2)ncc1C#N` [Example 15, N-((6-(3-(5-cyano-4-((2-methoxyethyl)amino)pyridin-2-yl)-1-methylureido)-2-formylpyridin-3-yl)methyl)-N-methylacetamide], the IC50 came to 106 nM in test [1] (Homo sapiens, Huh-7, 72 h); 4.8 nM in test [2]; 25 nM in test [4].

For the compound `COCCNc1cc(NC(=O)N(C)c2ccc(CN3CCCC3=O)c(C=O)n2)ncc1C#N` [Example 20, 3-(5-cyano-4-((2-methoxyethyl)amino)pyridin-2-yl)-1-(6-formyl-5-((2-oxopyrrolidin-1-yl)methyl)pyridin-2-yl)-1-methylurea], the IC50 against FGFR1 (407-822) is more than 10 µM; against FGFR3 (411-806), more than 10 µM; in test [1] (Homo sapiens, Huh-7, 72 h), 100 nM; in test [2], 5.3 nM; in test [3], 4.3 nM; against FGFR2 (406-821) it was more than 10 µM.

In the case of `CCN(C(=O)Nc1cc(NCCOC)c(C#N)cn1)c1ccc(-c2cnn(C)c2)c(C=O)n1` [Example 10, 3-(5-cyano-4-((2-methoxyethyl)amino)pyridin-2-yl)-1-ethyl-1-(6-formyl-5-(1-methyl-1H-pyrazol-4-yl)pyridin-2-yl)urea], the IC50 in test [2] turned out to be 13 nM; in test [3] it was 10 nM; in test [4], 1090 nM.

Regarding `COCCNc1cc(NC(=O)N(C)c2ccc(-c3cnn(C)c3)c(C=O)n2)ncc1C#N` [Example 13, 3-(5-cyano-4-((2-methoxyethyl)amino)pyridin-2-yl)-1-methyl-1-(6-formyl-5-(1-methyl-1H-pyrazol-4-yl)pyridin-2-yl)urea], the IC50 against FGFR1 (407-822) is more than 10 µM; against FGFR3 (411-806), more than 10 µM; in test [1] (Homo sapiens, Huh-7, 72 h) it was 664 nM; in test [2], 53 nM; in test [3], 5.8 nM; on FGFR2 (406-821), more than 10 µM.

Take `CC(C)Oc1cc(NC(=O)N(C)c2ccc(CN3CCN(C)CC3)c(C=O)n2)ncc1C#N` [Example 17, 3-(5-cyano-4-isopropoxypyridin-2-yl)-1-(6-formyl-5-((4-methylpiperazin-1-yl)methyl)pyridin-2-yl)-1-methylurea]: the IC50 against FGFR1 (407-822) was more than 10 µM; on FGFR3 (411-806), more than 10 µM; in test [1] (Homo sapiens, Huh-7, 72 h) it was 2760 nM; in test [2], 145 nM; in test [3], 29 nM; against FGFR2 (406-821), more than 10 µM.

With `COCCNc1cc(NC(=O)N(C)c2ccc(C(=O)O)c(C=O)n2)ncc1C#N` [Example 9, 6-(3-(5-cyano-4-((2-methoxyethyl)amino)pyridin-2-yl)-1-methylureido)-2-formylnicotinic acid], the IC50 in test [1] (Homo sapiens, Huh-7, 72 h) is more than 3000 nM; in test [2] it was 1270 nM; in test [3], 1.3 nM; in test [4], more than 3000 nM.

For the compound `CCN(C(=O)Nc1cc(NC(C)C)c(C#N)cn1)c1ccc(-c2cnn(C)c2)c(C=O)n1` [Example 11, 3-(5-cyano-4-(isopropylamino)pyridin-2-yl)-1-ethyl-1-(6-formyl-5-(1-methyl-1H-pyrazol-4-yl)pyridin-2-yl)urea], the IC50 was more than 10 µM against FGFR1 (407-822); more than 10 µM against FGFR3 (411-806); 17 nM in test [2]; 5.6 nM in test [3]; more than 10 µM on FGFR2 (406-821).

In the case of `COCCNc1cc(NC(=O)N(CC2CCOC2)c2cccc(C=O)n2)ncc1C#N` (racemic) [Example 4, 3-(5-cyano-4-((2-methoxyethyl)amino)pyridin-2-yl)-1-(6-formylpyridin-2-yl)-1-((tetrahydrofuran-3-yl)methyl)urea], the IC50 against FGFR1 (407-822) is more than 10 µM; at FGFR3 (411-806), more than 10 µM; in test [2] it was 268 nM; in test [3], 1.9 nM; against FGFR2 (406-821) it was more than 10 µM.
